{"source": "patent US20240293367A1", "about": "“METHODS OF TREATING DISORDERS WITH A […]” (Cybin IRL Limited, priority 2023, published 2024)", "test": "Phase I/IIa clinical PK of oral psilocin-d10, plasma, noncompartmental analysis (Cohorts 1-6)", "type": "in vivo, human", "settings": "for AUC(0-inf): read-out: AUC0-inf Mean (SD)", "experimental": "Phase I/IIa, Randomized, Double-Blind, Placebo-Controlled Study which assesses the safety, tolerability, pharmacokinetics, and pharmacodynamics of multiple ascending oral doses of psilocin-d10 in participants with and without MDD (ClinicalTrials.gov Identifier: NCT05385783). All subjects receiving study medication in Cohorts 1-6 received oral psilocin-d10 powder in solution (0.1M citric acid+Tang orange drink, 30 mL dose in a dose cup) and subjects receiving placebo received a similar volume of Tang orange drink without the psilocin-d10 study drug. All subjects receiving study medication in the relative bioavailability (BA) cohort received powder-filled capsules containing psilocin-d10 benzenesulfonate salt by ingestion with approximately 240 mL room temperature water, or oral psilocin-d10 powder in solution (0.1M citric acid+Tang orange drink, 30 mL dose in a dose cup) in a cross-over design. Psilocin-d10 for the powder in solution dosage form was manufactured by Patheon Pharma Services, with an isotopic purity of 79.89%. Psilocin-d10 benzenesulfonate salt for the powder-filled capsule dosage form was manufactured by Patheon Pharma Services, with an isotopic purity of 85.20%.\nCohorts 1, 4, 5, and 6 of the study was comprised of participants with MDD. Cohorts 2, 3, and the relative BA cohort of the study were comprised of normal healthy volunteers (NHV). […] MDD participants had been on a stable dose of antidepressant medication for at least one month prior to screening with an inadequate response to that antidepressant medication as judged by the Investigator, and continued to receive their prescribed antidepressant throughout the course of the study.\nCohort 1. For Cohort 1, 2 sentinel subjects were randomized and dosed, including 1 subject who received a psilocin-d10 1 mg oral dose and 1 subject who received a placebo dose. After the sentinel subjects were dosed, an additional 2 subjects were dosed, including a replacement subject for one of the sentinel subjects who withdrew consent and one additional subject. In total, four Cohort 1 subjects received a first dose of study medication on Day 1, and 3 subjects received a second dose of study medication on Day 22. For the first dose, 2 subjects received an active psilocin-d10 1 mg dose and 2 subjects received placebo. For the second dose, 3 subjects received an active psilocin-d10 1 mg dose.\nCohort 2. For Cohort 2, 4 subjects were randomized and dosed on Day 1 (2 subjects on one day, 2 subjects on the next day), including 3 subjects who received a psilocin-d10 3 mg oral dose and 1 subject who received a placebo dose. These same 4 subjects were again dosed on Day 8 (2 subjects on one day, 2 subjects on the next day), with all 4 subjects receiving a psilocin-d10 8 mg oral dose (note the actual washout was 11 days between doses).\nCohort 3. For Cohort 3 Day 1, 4 subjects were randomized and dosed on Day 1 (2 subjects on one day, 2 subjects on the next day), including 3 subjects who received a psilocin-do 8 mg oral dose and 1 subject who received a placebo dose. […] Another subject was dosed and left the study after the 2-hour PK sampling and has limited PK samples available for analysis from 0 to 2 hours—this subject's PK data has thus been excluded from the analysis presented hereinafter. For Cohort 3 Day 8, 3 subjects were dosed on Day 8 with a psilocin-d10 10 mg dose (2 sentinel subjects were dosed on one day, 1 non-sentinel subject was dosed on the next day).\nCohorts 4 and 5. For Cohorts 4 and 5, 12 participants each (24 participants total) were randomized in a 3:1 ratio to receive 12 mg of psilocin-d10 or matched placebo in a single dosing session on Day 1. Following a 21-day interval, all participants received a dose of 12 mg psilocin-d10 on Day 22 (second dose for participants originally randomized to psilocin-d10, first dose for participants randomized to placebo), and were followed to Day 42.\nCohort 6. […]", "note": "Where “and” joins values, the source holds several entries; their conditions need not be identical. Identical values can stand only once. Like-named read-outs stand apart in the source and are kept apart here.", "data": [{"smiles": "[2H]C([2H])([2H])N(C([2H])([2H])[2H])C([2H])([2H])C([2H])([2H])c1c[nH]c2cccc(O)c12", "note": "[psilocin-d10, 3-(2-(bis(methyl-d3)amino)ethyl-1,1,2,2-d4)-1H-indol-4-ol]", "values": [{"measurement": "CL/F Mean (SD)", "setting": "1 mg oral, Cohort 1 MDD, Day 1 and Day 22 pooled", "value": "101.08 (18.94) L/h"}, {"measurement": "CL/F Mean (SD)", "setting": "3 mg oral, Cohort 2 NHV, Day 1", "value": "85.22 (11.21) L/h"}, {"measurement": "Cmax Mean (SD)", "setting": "8 mg oral, Cohorts 2 and 3 NHV, Day 1 and Day 8 pooled, 2 subjects excluded", "value": "15.00 (4.85) ng/ml and 15.00^3 ng/ml"}, {"measurement": "CL/F Mean (SD)", "setting": "8 mg oral, Cohorts 2 and 3 NHV, pooled", "value": "97.56 (31.21) L/h"}, {"measurement": "AUC0-24 Mean (SD)", "setting": "8 mg oral, Cohorts 2 and 3 NHV, pooled, 2 subjects excluded", "value": "83.98 (21.46) h*ng/mL and 83.98^3 h*ng/mL"}, {"measurement": "CL/F Mean (SD)", "setting": "10 mg oral, Cohort 3 NHV, Day 8", "value": "104.7 (40.25) L/h"}, {"measurement": "CL/F Mean (SD)", "setting": "12 mg oral, Cohort 4 MDD, Day 1 and Day 22", "value": "85.32 (35.41) L/h"}, {"measurement": "CL/F Mean (SD)", "setting": "12 mg oral, Cohort 5 MDD, Day 1 and Day 22", "value": "91.95 (25.38) L/h"}, {"measurement": "CL/F Mean (SD)", "setting": "12 mg oral, Cohorts 4 and 5 MDD, Day 1 and Day 22", "value": "88.72 (30.45) L/h"}, {"measurement": "CL/F Mean (SD)", "setting": "16 mg oral, Cohort 6 MDD, all subjects incl. 3 with emesis", "value": "128.11 (83.50) L/h"}, {"measurement": "mean clearance (CL/F)", "setting": "16 mg, 18 doses, no emesis", "value": "~107.2", "unit": "L/h"}, {"measurement": "Observed Mean Cmax", "setting": "16 mg, Cohort 6, N = 18, excluding 3 doses with vomiting postdose", "value": "20.73^2 ng/mL"}, {"measurement": "fold increase in mean Cmax, 16 mg (18 doses, no emesis) compared to 12 mg", "setting": "1.33-fold increase in dose", "value": "~1.1", "unit": "fold"}, {"measurement": "fold increase in mean AUC, 12 mg compared to 8 mg", "setting": "1.5-fold increase in dose", "value": "1.7 to 1.8", "unit": "fold"}, {"measurement": "fold increase in mean Cmax, 12 mg compared to 8 mg", "setting": "1.5-fold increase in dose", "value": "~1.2", "unit": "fold"}, {"measurement": "mean Cmax, fold higher, 8 mg dose compared to 3 mg dose", "setting": "2.67-fold increase in dose", "value": 2.45, "unit": "fold"}, {"measurement": "mean AUC0-24, AUClast and AUC0-inf, fold higher, 8 mg compared to 1 mg", "setting": "8-fold increase in dose", "value": "8.1 to 8.3", "unit": "fold"}, {"measurement": "mean Cmax, fold higher, 8 mg dose compared to 1 mg dose", "setting": "8-fold increase in dose", "value": 8.6, "unit": "fold"}, {"measurement": "fold increase in mean AUC, 16 mg (18 doses, no emesis) compared to 12 mg", "setting": "human, plasma, oral", "value": "~1.1", "unit": "fold"}, {"measurement": "mean AUC0-24, AUClast and AUC0-inf higher for 10 mg compared to 8 mg", "setting": "human, plasma, oral", "value": "~20", "unit": "%"}, {"measurement": "mean AUC0-24, AUClast and AUC0-inf, fold higher, 3 mg compared to 1 mg", "setting": "human, plasma, oral", "value": "3.4 to 3.5", "unit": "fold"}, {"measurement": "mean Cmax lower for 10 mg dose cohort compared to 8 mg dose cohort", "setting": "human, plasma, oral", "value": "~10", "unit": "%"}, {"measurement": "mean Cmax, fold higher, 3 mg dose compared to 1 mg dose", "setting": "human, plasma, oral", "value": 3.5, "unit": "fold"}, {"measurement": "Cmax", "setting": "human, plasma, oral, 8 mg, Cohort 2, Day 8, N = 4, read-out: Observed Mean Cmax", "value": 16.6, "unit": "ng/mL"}, {"measurement": "half-life", "setting": "human, plasma, oral, 8 mg, range of means for 1, 3 and 8 mg doses, read-out: elimination half-life, on average", "value": "4.18 to 5.41", "unit": "h"}, {"measurement": "Vd/F", "setting": "human, plasma, oral, 16 mg, 18 doses, no emesis, read-out: mean volume of distribution (Vz/F)", "value": "~834", "unit": "L"}, {"measurement": "AUC(0-t)", "setting": "human, plasma, oral, 16 mg, Cohort 6, N = 18, excluding 3 doses with vomiting postdose, read-out: Observed Mean AUC0-24", "value": 165, "unit": "ng·h/mL"}, {"measurement": "Cmax", "setting": "human, plasma, oral, 16 mg, Cohort 6, N = 18, excluding 3 doses with vomiting postdose, read-out: Observed Mean Cmax", "value": 20.7, "unit": "ng/mL"}, {"measurement": "half-life", "setting": "human, plasma, oral, 16 mg, as given in the text, read-out: mean elimination half-life (T1/2) (converted)", "value": 5.58, "unit": "h"}, {"measurement": "Vd/F", "setting": "human, plasma, oral, range of means, 1 to 10 mg doses, read-out: apparent volume of distribution (Vz/F), on average", "value": "584 to 761", "unit": "L"}, {"measurement": "concentration at 2 h", "setting": "human, plasma, oral, 10 mg, Cohort 3 Day 8, read-out: plasma psilocin-d10 concentration of one subject at 2 hours postdose", "value": 18.7, "unit": "ng/mL"}, {"measurement": "concentration at 4 h", "setting": "human, plasma, oral, 10 mg, Cohort 3 Day 8, set ~20% below the 2-hour value, read-out: estimated plasma psilocin-d10 concentration of one subject at 4 hours postdose (missed sample)", "value": 14.9, "unit": "ng/mL"}, {"measurement": "AUC(0-t)", "setting": "human, plasma, po, 1 mg, 1 mg oral, Cohort 1 MDD, Day 1 and Day 22 pooled, read-out: AUC0-24 Mean (SD)", "value": 10, "unit": "ng·h/mL"}, {"measurement": "AUC(0-inf)", "setting": "human, plasma, po, 1 mg, 1 mg oral, Cohort 1 MDD, Day 1 and Day 22 pooled", "value": 10.2, "unit": "ng·h/mL"}, {"measurement": "AUC(0-t)", "setting": "human, plasma, po, 1 mg, 1 mg oral, Cohort 1 MDD, Day 1 and Day 22 pooled, read-out: AUClast Mean (SD)", "value": 10, "unit": "ng·h/mL"}, {"measurement": "Cmax", "setting": "human, plasma, po, 1 mg, 1 mg oral, Cohort 1 MDD, Day 1 and Day 22 pooled, read-out: Cmax Mean (SD)", "value": 1.69, "unit": "ng/mL"}, {"measurement": "Cmax", "setting": "human, plasma, po, 1 mg, 1 mg oral, Cohort 1 MDD, Day 1 and Day 22 pooled, read-out: Cmax Median", "value": 1.7, "unit": "ng/mL"}, {"measurement": "half-life", "setting": "human, plasma, po, 1 mg, 1 mg oral, Cohort 1 MDD, Day 1 and Day 22 pooled, read-out: T1/2 Mean (SD) (converted)", "value": 4.18, "unit": "h"}, {"measurement": "Vd/F", "setting": "human, plasma, po, 1 mg, 1 mg oral, Cohort 1 MDD, Day 1 and Day 22 pooled, read-out: Vz/F Mean (SD)", "value": 608, "unit": "L"}, {"measurement": "AUC(0-t)", "setting": "human, plasma, po, 3 mg, 3 mg oral, Cohort 2 NHV, Day 1, read-out: AUC0-24 Mean (SD)", "value": 34.5, "unit": "ng·h/mL"}, {"measurement": "AUC(0-inf)", "setting": "human, plasma, po, 3 mg, 3 mg oral, Cohort 2 NHV, Day 1", "value": 35.6, "unit": "ng·h/mL"}, {"measurement": "AUC(0-t)", "setting": "human, plasma, po, 3 mg, 3 mg oral, Cohort 2 NHV, Day 1, read-out: AUClast Mean (SD)", "value": 34.5, "unit": "ng·h/mL"}, {"measurement": "Cmax", "setting": "human, plasma, po, 3 mg, 3 mg oral, Cohort 2 NHV, Day 1, read-out: Cmax Mean (SD)", "value": 5.91, "unit": "ng/mL"}, {"measurement": "Cmax", "setting": "human, plasma, po, 3 mg, 3 mg oral, Cohort 2 NHV, Day 1, read-out: Cmax Median", "value": 5.87, "unit": "ng/mL"}, {"measurement": "half-life", "setting": "human, plasma, po, 3 mg, 3 mg oral, Cohort 2 NHV, Day 1, read-out: T1/2 Mean (SD) (converted)", "value": 4.76, "unit": "h"}, {"measurement": "Vd/F", "setting": "human, plasma, po, 3 mg, 3 mg oral, Cohort 2 NHV, Day 1, read-out: Vz/F Mean (SD)", "value": 584, "unit": "L"}, {"measurement": "Cmax", "setting": "human, plasma, po, 8 mg, 8 mg oral, Cohorts 2 and 3 NHV, Day 1 and Day 8 pooled, 2 subjects excluded, read-out: Cmax Mean (SD)", "value": 15, "unit": "ng/mL"}]}]}
